Test results: patent US6875792B2, “Dosage form of L-Methionine S-Sulfoximine” (MSO Pharma LLC, priority 2002, dated 2005)
Like-named read-outs stand apart in the source and are kept apart here.

How the values were obtained:
[1] = low doses
Description: As stated above, one unfortunate and well known side effect of MSO is that it is a convulsant.

glutamine synthetase [2] = target: T1, glutamine synthetase (Rattus norvegicus, UniProt P09606); conditions: cited from earlier work
glutamine synthetase [3] = target: T1, glutamine synthetase; conditions: low dose intravenous, 24 hours prior to sacrifice
Description: (§1) The Hawkins data is represented with closed circles whereas the comparison tested rats are represented with “+” and open circle symbols. The monkey results are shown with triangles. N represents the number of animals studied.
(§2) The monkeys who received LSMSO at doses of 5 and 10 mg/kg were anesthetized for a four hour period prior to sacrifice.

[4] = cited from earlier work
[5] = target: cortical glutamine synthetase (Rattus norvegicus, UniProt P09606); conditions: model of acute hyperammonemia; cited from earlier work
glutamine synthetase [6] = conditions: cited from earlier work
[7] = mice; cited from earlier work
glutamine synthetase [8] = target: T1, glutamine synthetase; conditions: MSO pretreatment, cited from earlier work
glutamine synthetase [9] = target: glutamine synthetase (Macaca mulatta, UniProt F7CAM5)
Description: as §1, §2

[10] = cited from earlier work; remark: listed apart in the source
[11] = cited from earlier work; remark: listed apart in the source
[12] = rats, cited from earlier work; for paroxysmal symptoms: 100 mg/kg and 50 mg/kg, 20 hours; for brain glutamine level versus paroxysmal dose: 100 and 50 mg/kg vs 200 mg/kg, 20 hours after administration
[13] = target: γ-glutamylcysteine synthetase (Rattus norvegicus, UniProt P19468); conditions: cited from earlier work
[14] = portacaval anastomosis rats infused with ammonium acetate, 150 mg/kg pretreatment; cited from earlier work
[15] = rats vs dogs; cited from earlier work
[16] = target: T2, gamma glutamyl cysteine synthetase (Rattus norvegicus, UniProt P19468); conditions: cited from earlier work
T2 construct: host or cells: rat brain in vivo
T2 sequence (P19468 1-637): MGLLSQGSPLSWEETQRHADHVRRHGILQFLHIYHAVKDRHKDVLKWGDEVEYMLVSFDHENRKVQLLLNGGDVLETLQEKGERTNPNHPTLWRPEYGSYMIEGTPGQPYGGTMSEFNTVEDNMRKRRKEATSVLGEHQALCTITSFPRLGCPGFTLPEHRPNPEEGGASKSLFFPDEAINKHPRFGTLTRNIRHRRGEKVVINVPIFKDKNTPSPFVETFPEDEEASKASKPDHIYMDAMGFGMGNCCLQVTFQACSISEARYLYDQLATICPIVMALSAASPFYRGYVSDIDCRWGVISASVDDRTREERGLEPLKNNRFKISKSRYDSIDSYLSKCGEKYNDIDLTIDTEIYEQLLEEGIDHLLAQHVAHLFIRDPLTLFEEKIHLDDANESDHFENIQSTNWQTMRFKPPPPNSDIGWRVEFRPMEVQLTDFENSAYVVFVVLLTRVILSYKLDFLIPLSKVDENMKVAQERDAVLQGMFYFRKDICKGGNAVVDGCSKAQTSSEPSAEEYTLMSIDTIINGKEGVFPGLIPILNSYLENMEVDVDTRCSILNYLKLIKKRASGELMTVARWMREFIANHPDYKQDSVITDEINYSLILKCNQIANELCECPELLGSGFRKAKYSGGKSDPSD

[17] = rats; did not affect MSO's inhibition of GS; cited from earlier work

T1 sequence (P09606 2-373 limits assumed): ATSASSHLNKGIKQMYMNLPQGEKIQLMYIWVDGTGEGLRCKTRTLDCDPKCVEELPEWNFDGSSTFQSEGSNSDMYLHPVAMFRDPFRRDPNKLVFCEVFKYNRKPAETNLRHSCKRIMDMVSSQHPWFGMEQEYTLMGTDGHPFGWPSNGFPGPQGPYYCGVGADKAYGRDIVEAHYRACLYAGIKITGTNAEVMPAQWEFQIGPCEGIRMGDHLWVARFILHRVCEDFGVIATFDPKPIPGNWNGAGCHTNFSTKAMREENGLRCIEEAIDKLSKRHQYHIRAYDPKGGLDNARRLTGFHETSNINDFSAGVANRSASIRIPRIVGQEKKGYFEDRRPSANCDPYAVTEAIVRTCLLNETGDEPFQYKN
Chain of glutamine synthetase (Macaca mulatta, UniProt F7CAM5) (F7CAM5 1-373): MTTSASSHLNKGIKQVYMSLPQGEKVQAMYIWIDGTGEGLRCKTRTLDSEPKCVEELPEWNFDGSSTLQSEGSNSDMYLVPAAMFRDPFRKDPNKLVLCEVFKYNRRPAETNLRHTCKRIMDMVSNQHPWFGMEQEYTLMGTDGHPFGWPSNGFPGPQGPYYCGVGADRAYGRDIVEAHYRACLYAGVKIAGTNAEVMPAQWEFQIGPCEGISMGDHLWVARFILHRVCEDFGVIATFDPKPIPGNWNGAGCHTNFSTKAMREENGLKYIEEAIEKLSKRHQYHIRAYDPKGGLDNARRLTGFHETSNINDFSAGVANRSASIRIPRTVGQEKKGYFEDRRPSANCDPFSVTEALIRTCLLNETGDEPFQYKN
Chain of cortical glutamine synthetase (P09606 2-373 limits assumed): as the sequence (P09606 2-373 limits assumed) above
Chain of γ-glutamylcysteine synthetase (P48508 whole entry partner, one chain of several, the tested form may be a part): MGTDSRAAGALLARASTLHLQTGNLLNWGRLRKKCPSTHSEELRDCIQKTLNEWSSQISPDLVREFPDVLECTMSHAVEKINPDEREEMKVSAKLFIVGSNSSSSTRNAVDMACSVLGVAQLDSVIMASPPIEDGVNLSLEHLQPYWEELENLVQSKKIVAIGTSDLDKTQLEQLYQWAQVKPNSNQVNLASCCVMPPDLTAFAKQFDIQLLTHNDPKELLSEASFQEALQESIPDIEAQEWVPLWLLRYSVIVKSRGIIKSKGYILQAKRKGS

For CS(=N)(=O)CC[C@H](N)C(=O)O (stereo partly drawn) [LSMSO, L-methionine S-sulfoximine], the brain glutamine levels [1] is listed as “lowered”, the seizures ([1]; LSMSO alone) is listed as “no seizures” and the “glutamine synthetase inhibition at low doses” value (glutamine synthetase [2]; rats, doses of less than 20 mg/kg) is listed as “dramatic decrease”. The “state of the rats prior to sacrifice” value (glutamine synthetase [3]) was “awake and asymptomatic”.
In the case of CS(=N)(=O)CC[C@H](N)C(=O)O (some centres unmarked) [MSO, methionine sulfoximine], the “most effective dosage for episodic running behavior to repeated sounds” value ([4]; cats and rats) is listed as 7.5 mg/kg, the “effect at 10 mg/kg” value ([4]; cats, 10 mg/kg) is listed as “early convulsive episodes” and the “amounts that did not render cats susceptible” value ([4]; cats) is listed as “less than 5 mg/kg”. For the same molecule, the “inhibition of cortical glutamine synthetase” value [5] was 64%, the “prevented increase in cortical glutamine concentration” value [5] was 13 mmol/kg and the “inhibition at 72 hours” value (glutamine synthetase [6]; brain, 72 hours) was “remains to a considerable degree”. The “persistence of inhibitory effect on glutamine synthetase” value (glutamine synthetase [6]; brain) was “a long as seven days”, the “time of maximal inhibition in the brain” value (glutamine synthetase [6]; single injection) was 24 h and the “in vivo ammonia toxicity” value [7] was “marked decrease”. For the same molecule, the glutamine synthetase activity (glutamine synthetase [2]; rats, 5 to 200 mg/kg intraperitoneal) was “decreased in proportion to the dose”, the toxicity (glutamine synthetase [2]; rats, 5 to 200 mg/kg intraperitoneal, except at the highest dose of 200 mg/kg) was “no evidence of toxicity” and the “time to raised brain concentration of ammonia” value (glutamine synthetase [2]; single intraperitoneal injection) was no more than 2 h. For the same molecule, the cortical glutamine levels (glutamine synthetase [8]; group IV hyperammonemic rats) was “did not increase”, the “inhibition of glutamine synthetase activity” value (glutamine synthetase [8]; within the brain) was 64% and the activity and appetite (glutamine synthetase [9]; one monkey, 2.5 mg/kg, 24 hour period prior to sacrifice) was “normal”. The “sensitivity to the glutamine synthetase inhibiting effect” value (glutamine synthetase [9]; primates compared to rats, low doses, FIG. 1) was “more sensitive”, the tumor regression ([10]; patients with far-advanced, nonresectable cancer) was “no evidence of tumor regression” and the “hepatic or renal function or hematological status” value ([10]; patients, divided doses every 6 or 8 hours) was “no change”. The “resistance to MSO relative to dogs” value ([11]; monkeys vs dogs) was “approximately 100 times”, the paroxysmal symptoms [12] was “did not differ in any way from the control animals” and the paroxysmal symptoms ([12]; listed as MSI) was “no paroxysmal symptoms”. The “seizures at highest dose” value ([12]; 200 mg/kg) was “had seizures”, the “brain glutamine level versus paroxysmal dose” value [12] was “decreased to the same degree” and the “brain glutamine level versus paroxysmal dose” value ([12]; listed as MSI) was “reduced to the same degree”. The “inhibition of γ-glutamylcysteine synthetase” value [13] was “effective inhibitor”, the brain edema [14] was “ameliorated” and the intracranial pressure [14] was “did not rise”. The “resistance to MSO relative to dogs” value [15] was “approximately 100 times”.
In the case of CCCCS(=N)(=O)CCC(N)C(=O)O (centres unmarked) [buthionine sulfoximine], the hyperammonemic brain swelling [16] is given as “did not prevent”.
In the case of CSCC[C@H](N)C(=O)O [methionine], the “protection from the convulsant effect of MSO” value [17] is given as “protected” and the “MSO-induced seizures on administration of methionine” value ([11]; monkeys and dogs) is given as “suppressed”.
